Earlier results as cited in US20100280059A1, “COMPOSITIONS COMPRISING AN ANTIHISTAMINE, A[…] DE[…] EXTENDED RELEASE FORMULATIONS” (Atley Pharmaceuticals, Inc., priority 2009, published 2010).
Where two headings read alike, the source gives them in different places.

Key:
[1] = not given; remark: listed apart in the source
[2] = not given; remark: listed apart in the source
[3] = single IR oral dose of 10 mg HC, 5 male human subjects

In the case of CN(C)CCC(c1ccc(Cl)cc1)c1ccccn1 (stereo not shown) [CPM, chlorpheniramine], the “excreted in the feces” value (in vivo) is listed as “Less than 1%”, the “renal elimination as share of total excretion” value (in vivo) is listed as “approximately 50%” and the “excreted in the urine” value (metabolism to monodesmethyl and didesmethyl compounds) is listed as “up to 26%”.

For CN[C@@H](C)[C@@H](O)c1ccccc1 [PSE, pseudoephedrine], the half-life ([1]; affected by urinary pH) is given as 9 to 16 h, the Tmax ([1]; following administration) is given as 1.5 to 2.4 h and the “dose excreted unchanged in the urine” value ([1]; within 24 hours of dosing) is given as “up to 90%”.

For COc1ccc2c3c1O[C@H]1C(=O)CC[C@H]4[C@@H](C2)N(C)CC[C@]314 [HC, hydrocodone], the “share of total excretion occurring in the first 24 hours” value ([2]; after a single oral dose) is given as “About 70%”, the “elimination half-life of the parent-compound” value ([2]; in vivo) is given as 3.8 to 4.5 h and the Tmax [2, 3] is given as “approximately 1.3±0.3 hours”. The “mean peak serum concentration” value [2, 3] was 23.6 ± 5.2 ng/mL.
